Target: T1, C5a anaphylatoxin chemotactic receptor 1 (Homo sapiens, UniProt P21730)
T1 sequence (P21730 whole entry): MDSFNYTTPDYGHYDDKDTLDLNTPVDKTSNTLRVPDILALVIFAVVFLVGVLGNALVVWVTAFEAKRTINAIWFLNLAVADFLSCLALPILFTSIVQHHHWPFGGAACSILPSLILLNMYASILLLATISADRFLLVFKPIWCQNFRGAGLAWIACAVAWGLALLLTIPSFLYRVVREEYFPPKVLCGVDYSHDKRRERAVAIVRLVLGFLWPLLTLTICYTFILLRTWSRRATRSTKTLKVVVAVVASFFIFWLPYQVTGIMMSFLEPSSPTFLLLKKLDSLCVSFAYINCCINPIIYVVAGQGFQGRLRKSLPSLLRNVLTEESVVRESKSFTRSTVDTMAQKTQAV
Experiment: chemotaxis assay
Protocol: Optionally, compounds may be further assayed for their ability to inhibit chemotaxis in cells. Chemotaxis assays are performed using 5 μm pore polycarbonate, polyvinylpyrrolidone-coated filters in 96-well chemotaxis chambers (Neuroprobe; Gaithersburg, Md.) using chemotaxis buffer (Hank's balanced salt solution (HBSS) and 1% FBS). C5aR ligands (i.e., C5a, R&D Systems; Minneapolis, Minn.) are use to evaluate compound mediated inhibition of C5aR mediated migration. Other chemokines (i.e., SDF-1α; R&D Systems; Minneapolis, Minn.) are used as specificity controls. The lower chamber is loaded with 29 μl of chemokine (i.e., 0.03 nM C5a) and varying amounts of compound; the top chamber contains 100,000 U937 or neutrophil cells in 20 μl. The chambers are incubated 1.5 hours at 37° C., and the number of cells in the lower chamber quantified either by direct cell counts in five high powered fields per well or by the CyQuant assay (Molecular Probes), a fluorescent dye method that measures nucleic acid content and microscopic observation.

SMILES	IC50 [nM]
Cc1cccc(OCC(C)C)c1-n1nc2c(c1-c1ccc(NC(N)=O)c(F)c1)CN(c1ncc(Cl)cc1F)CC2 [US11478460, Compound 1.250]	< 5
Cc1cccc(OCC(C)C)c1-n1nc2c(c1-c1ccc(NC(N)=O)cc1)CN(c1cccc(C(C)(C)C)n1)CC2 [US11478460, Compound 1.394]	< 5

Reference: BindingDB's records for patent US11478460 (Chemocentryx, 2022)
